Data published in ChEMBL document CHEMBL1131821, “SAR in the alkoxy lactone series: the discovery of DFP, a potent and orally active COX-2 inhibitor” (Bioorg Med Chem Lett, 1999).
One block for each molecule: values may come before it.

Legend:
[1] = target: T1, Prostaglandin G/H synthase 1 (Homo sapiens, UniProt P23219); assay type: tissue-based, Blood
Description: Inhibitory activity against Prostaglandin G/H synthase 1 in human whole blood

[2] = tested on: Rattus norvegicus; assay: In vivo effective concentration of compound in rat pyresis; assay type: functional
[3] = tested on: Rattus norvegicus; assay: In vivo effective concentration of compound in rat adjuvant arthritis; assay type: functional
[4] = tested on: Rattus norvegicus; assay: In vivo effective concentration of compound in rat hyperalgesia; assay type: functional
[5] = tested on: Rattus norvegicus; assay: In vivo effective concentration of compound in rat paw edema; assay type: functional
[6] = target: T1, Prostaglandin G/H synthase 1; assay: Inhibitory activity against Human Prostaglandin G/H synthase 1 in U937 Microsome COX-1 assay
[7] = target: T1, Prostaglandin G/H synthase 1; assay: In vitro inhibitory activity against Prostaglandin G/H synthase 1 in human whole blood assay
[8] = Maximal concentration (Cmax) in rhesus monkey plasma at a dose of 5 mg/kg; assay type: ADME, organism-based; parameters: dose 5 mg/kg; conditions: cercopithecidae
[9] = Half life by ''Cr'' assay in dog at a dose of 5 mg/kg; assay type: ADME, organism-based, Canis lupus familiaris; parameters: dose 5 mg/kg; conditions: in vivo
[10] = Maximal concentration (Cmax) in squirrel monkey plasma at a dose of 5 mg/kg; assay type: ADME, organism-based; parameters: dose 5 mg/kg
[11] = Maximal concentration (Cmax) in the rat plasma at a dose of 10 mg/kg; assay type: ADME, organism-based; parameters: dose 10 mg/kg
[12] = Half life the of compound was determined by ''Cr'' assay in squirrel monkey at a dose of 5 mg/kg; assay type: ADME, organism-based; parameters: dose 5 mg/kg; conditions: in vivo
[13] = Half life the of compound was determined by ''Cr'' assay in rat at a dose of 10 mg/kg; assay type: ADME, organism-based; parameters: dose 10 mg/kg; conditions: in vivo
[14] = Half life by ''Cr'' assay in rhesus monkey at a dose of 5 mg/kg; assay type: ADME, organism-based; parameters: dose 5 mg/kg; conditions: cercopithecidae, in vivo
[15] = Maximal concentration (Cmax) in dog plasma at a dose of […] mg/kg; assay type: ADME, organism-based, Canis lupus familiaris; conditions: 5 mg/kg
[16] = target: T1, Prostaglandin G/H synthase 1; assay: Inhibitory activity against Human Prostaglandin G/H synthase 1 in U937 Microsome COX-1 assay at a concentration of 30 uM
[17] = target: T1, Prostaglandin G/H synthase 1; assay: Inhibitory activity against Human Cyclooxygenase-1 ( COX-1 ) in U937 Microsome COX-1 assay

T1 sequence (P23219 whole entry): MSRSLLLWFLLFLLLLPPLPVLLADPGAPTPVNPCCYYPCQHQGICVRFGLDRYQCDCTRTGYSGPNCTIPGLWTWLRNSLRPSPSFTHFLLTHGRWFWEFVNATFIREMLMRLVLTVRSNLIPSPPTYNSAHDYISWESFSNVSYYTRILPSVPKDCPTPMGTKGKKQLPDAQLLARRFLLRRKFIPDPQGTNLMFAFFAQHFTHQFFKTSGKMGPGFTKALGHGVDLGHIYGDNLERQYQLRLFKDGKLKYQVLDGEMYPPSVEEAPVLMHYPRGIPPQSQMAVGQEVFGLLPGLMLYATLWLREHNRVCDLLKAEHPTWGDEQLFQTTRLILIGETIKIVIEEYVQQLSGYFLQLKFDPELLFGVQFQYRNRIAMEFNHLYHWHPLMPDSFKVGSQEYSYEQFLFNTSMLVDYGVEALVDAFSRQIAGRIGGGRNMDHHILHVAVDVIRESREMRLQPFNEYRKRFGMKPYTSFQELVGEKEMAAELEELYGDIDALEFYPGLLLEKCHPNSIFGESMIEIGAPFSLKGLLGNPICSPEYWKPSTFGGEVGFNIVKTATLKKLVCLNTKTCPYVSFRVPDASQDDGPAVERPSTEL

IC50 [1]: 30 µM
Structure (SMILES): CC1(C)OC(=O)C(OC2CCC2)=C1c1ccc(S(C)(=O)=O)cc1

IC50 [1]: 39 µM
Structure (SMILES): CCC(CC)OC1=C(c2ccc(S(C)(=O)=O)cc2)C(C)(C)OC1=O

IC50 [1]: 10 µM
Structure (SMILES): CCC(C)OC1=C(c2ccc(S(C)(=O)=O)cc2)C(C)(C)OC1=O (configuration not stated)

IC50 [1]: > 100 µM
Structure (SMILES): CC1(C)OC(=O)C(OC2CCCC2)=C1c1ccc(S(C)(=O)=O)cc1

Structure (SMILES): COc1ccc2c(c1)c(CC(=O)O)c(C)n2C(=O)c1ccc(Cl)cc1 [INDOMETHACIN]
ED50 [2]: 1.1 mg/kg | ED50 [3]: 0.2 mg/kg | ED50 [4]: 1.5 mg/kg | ED50 [5]: 2 mg/kg

IC50 [6]: 25 µM | IC50 [1]: > 100 µM
Structure (SMILES): CC1(C)OC(=O)C(OCC2CC2)=C1c1ccc(S(C)(=O)=O)cc1 [FIROCOXIB]

IC50 [7]: > 58 µM
Structure (SMILES): CC1(C)OC(=O)C(OC2CCCCC2)=C1c1ccc(S(C)(=O)=O)cc1

Structure (SMILES): CC(C)OC1=C(c2ccc(S(C)(=O)=O)cc2)C(C)(C)OC1=O
Cmax [8]: 3 µM | ED50 [2]: 0.3 mg/kg | half-life [9]: 4.8 h | Cmax [10]: 5.5 µM | ED50 [3]: 0.15 mg/kg | Cmax [11]: 15 µM | half-life [12]: 1.4 h | half-life [13]: 7.1 h | half-life [14]: 2 h | ED50 [4]: 0.8 mg/kg | ED50 [5]: 0.8 mg/kg | Cmax [15]: 12 µM | inhibition [16]: 32% | IC50 [1]: > 100 µM

IC50 [17]: 6.5 µM | IC50 [1]: 36 µM
Structure (SMILES): CC(OC1=C(c2ccc(S(C)(=O)=O)cc2)C(C)(C)OC1=O)C1CC1 (configuration not stated)
